Reference: patent US20210196724A1, “BIARYL COMPOSITIONS AND METHODS FOR MODULATING A KINASE CASCADE” (Athenex, Inc., priority 2016, published 2021)

What was measured:
Assay type in all cases: cell-based
KARPAS-299 cells = assay: CellTiter-Glo cell viability, KARPAS-299; conditions: Homo sapiens, 72 h
Protocol: (§1) The cell viability of 50 cancer cell lines was studied after treatment with Compound 121. Inhibition concentration values at 50% (IC50) were determined using CellTiter-Glo luminescent cell viability assay after incubation with different compound concentrations. GI50 values were determined according to the examples described above. Each cell line was treated with Compound 121, a standard chemotherapy drug as a reference control, and culture medium as a vehicle control.
(§2) All cells were cultured in media supplemented with 10-15% FBS at 37° C. in the presence of 5% CO2 and at 95% humidity. The culture medium was purchased from GIBCO or Sigma, USA. Cisplatin was chosen as the reference control and purchased from Hospira Australia Pty Ltd. The cell lines studied are presented in Table 5.
(§3) Cells were harvested during a logarithmic growth period and cell number count was determined using Count-star. Cell concentrations were adjusted to 4.44×10^4 cells/mL with respective culture medium. 90 μL of cell suspensions were added to two 96-well plates (plates A and B) with a final cell density of 4×10^3 cells/well.
(§4) 10 μL of culture medium was added to each well of plate A for TO reading. The plate was allowed to equilibrate at room temperature for approximately 30 min. 50 μL of CellTiter-Glo was added to each well and the contents were mixed for 5 min on an orbital shaker to induce cell lysis. The plate was allowed to incubate at room temperature for 20 min to stabilize luminescent signal.
(§5) 10 μM Compound 121 in media was serially diluted 3.16-fold to achieve 9 dose levels. Similarly, 100 μM reference control in media was serially diluted 3.16-fold to prepare reference control solutions. 10 μL drug solution and 10 μL of reference control was dispensed into each well in plate B.
(§6) Test plate B was incubated for 72 h in a humidified incubator at 37° C. in the presence of 5% CO2 and then subjected to CTG assay. The plate was allowed to equilibrate at room temperature for about 30 min. 50 μL of CellTiter-Glo was added to each well and the contents were mixed for 5 min on an orbital shaker to induce cell lysis. The plate was allowed to incubate at room temperature for 20 min to stabilize luminescent signal.
(§7) IC50 and GI50 values for each of the 50 cell lines are presented in Table 6 and were calculated based on the dose-response curves depicted in FIGS. 1-50. The dose-response curves were fitted using nonlinear regression model with a sigmoidal dose response. The formula for calculating survival rate was calculated by the formula:
(§8) Survival rate (%)=(LumTest article−LumMedium control)/(LumNone treated−LumMedium control)×100.

NCI-H226 cells = assay: CellTiter-Glo cell viability, NCI-H226; conditions: Homo sapiens, 72 h
Protocol: as §1, §2, §3, §4, §5, §6, §7, §8

OVCAR-3 cells = assay: CellTiter-Glo cell viability, OVCAR-3; conditions: Homo sapiens, 72 h
Protocol: as §1, §2, §3, §4, §5, §6, §7, §8

Molt-4 cells = assay: CellTiter-Glo cell viability, Molt-4; conditions: Homo sapiens, 72 h
Protocol: as §1, §2, §3, §4, §5, §6, §7, §8

NCI-H209 cells = assay: CellTiter-Glo cell viability, NCI-H209; conditions: Homo sapiens, 72 h
Protocol: as §1, §2, §3, §4, §5, §6, §7, §8

JEG-3 cells = assay: CellTiter-Glo cell viability, JEG-3; conditions: Homo sapiens, 72 h
Protocol: as §1, §2, §3, §4, §5, §6, §7, §8

SNU-5 cells = assay: CellTiter-Glo cell viability, SNU-5; conditions: Homo sapiens, SNU-5, SN1J-5 cells, 72 h
Protocol: as §1, §2, §3, §4, §5, §6, §7, §8

MX-1 cells = assay: CellTiter-Glo cell viability, MX-1; conditions: Homo sapiens, MX1, 72 h
Protocol: as §1, §2, §3, §4, §5, §6, §7, §8

NCI-H1155 cells = assay: CellTiter-Glo cell viability, NCI-H1155; conditions: Homo sapiens, 72 h
Protocol: as §1, §2, §3, §4, §5, §6, §7, §8

MDA-MB-453 cells = assay: CellTiter-Glo cell viability, MDA-MB-453; conditions: Homo sapiens, 72 h
Protocol: as §1, §2, §3, §4, §5, §6, §7, §8

SK-OV-3 cells = assay: CellTiter-Glo cell viability, SK-OV-3; conditions: Homo sapiens, 72 h
Protocol: as §1, §2, §3, §4, §5, §6, §7, §8

HUH-7 cells = assay: CellTiter-Glo cell viability, HUH-7; conditions: Homo sapiens, 72 h
Protocol: as §1, §2, §3, §4, §5, §6, §7, §8

NCI-N87 cells = assay: CellTiter-Glo cell viability, NCI-N87; conditions: Homo sapiens, 72 h
Protocol: as §1, §2, §3, §4, §5, §6, §7, §8

22Rv1 cells = assay: CellTiter-Glo cell viability, 22Rv1; conditions: Homo sapiens, 72 h
Protocol: as §1, §2, §3, §4, §5, §6, §7, §8

SK-N-FI cells = assay: CellTiter-Glo cell viability, SK-N-FI; conditions: Homo sapiens, 72 h
Protocol: as §1, §2, §3, §4, §5, §6, §7, §8

Raji cells = assay: CellTiter-Glo cell viability, Raji; conditions: Homo sapiens, 72 h
Protocol: as §1, §2, §3, §4, §5, §6, §7, §8

HT-1376 cells = assay: CellTiter-Glo cell viability, HT-1376; conditions: Homo sapiens, 72 h
Protocol: as §1, §2, §3, §4, §5, §6, §7, §8

SW579 cells = assay: CellTiter-Glo cell viability, SW579; conditions: 72 h
Protocol: as §1, §2, §3, §4, §5, §6, §7, §8

SCC-4 cells = assay: CellTiter-Glo cell viability, SCC-4; conditions: Homo sapiens, 72 h
Protocol: as §1, §2, §3, §4, §5, §6, §7, §8

FaDu cells = assay: CellTiter-Glo cell viability, FaDu; conditions: Homo sapiens, 72 h
Protocol: as §1, §2, §3, §4, §5, §6, §7, §8

MES-SA/DX5 cells = assay: CellTiter-Glo cell viability, MES-SA/DX5; conditions: Homo sapiens, 72 h
Protocol: as §1, §2, §3, §4, §5, §6, §7, §8

JHH-5 cells = assay: CellTiter-Glo cell viability, JHH-5; conditions: 72 h
Protocol: as §1, §2, §3, §4, §5, §6, §7, §8

[1] = top conc. 10 μM Compound 121, 100 μM cisplatin

Compound: Cc1cc(N2CCOC[C@@H]2C)ccc1-c1ccc(CC(=O)NCc2ccc(F)cc2)nc1 [Compound 121]
- GI50 (KARPAS-299 cells; read-out: Absolute GI50): 6 nM
- IC50 (KARPAS-299 cells; read-out: Absolute IC50): 6 nM
- inhibition at 10 µM (KARPAS-299 cells; [1]): 99.4%
- GI50 (NCI-H226 cells; read-out: Absolute GI50): 10 nM
- IC50 (NCI-H226 cells; read-out: Absolute IC50): 13 nM
- inhibition at 10 µM (NCI-H226 cells; [1]): 61.7%
- GI50 (OVCAR-3 cells; read-out: Absolute GI50): 5 nM
- IC50 (OVCAR-3 cells; read-out: Absolute IC50): 6 nM
- inhibition at 10 µM (OVCAR-3 cells; [1]): 64.8%
- GI50 (Molt-4 cells; read-out: Absolute GI50): 13 nM
- IC50 (Molt-4 cells; read-out: Absolute IC50): 14 nM
- inhibition at 10 µM (Molt-4 cells; [1]): 99.6%
- GI50 (NCI-H209 cells; read-out: Absolute GI50): 17 nM
- IC50 (NCI-H209 cells; read-out: Absolute IC50): 20 nM
- inhibition at 10 µM (NCI-H209 cells; [1]): 73.7%
- GI50 (JEG-3 cells; read-out: Absolute GI50): 8 nM
- IC50 (JEG-3 cells; read-out: Absolute IC50): 9 nM
- inhibition at 10 µM (JEG-3 cells; [1]): 86.5%
- GI50 (SNU-5 cells; read-out: Absolute GI50): 11 nM
- IC50 (SNU-5 cells; read-out: Absolute IC50): 12 nM
- inhibition at 10 µM (SNU-5 cells; [1]): 96.2%
- GI50 (MX-1 cells; read-out: Absolute GI50): 11 nM
- IC50 (MX-1 cells; read-out: Absolute IC50): 18 nM
- inhibition at 10 µM (MX-1 cells; [1]): 66.8%
- GI50 (NCI-H1155 cells; read-out: Absolute GI50): 6 nM
- IC50 (NCI-H1155 cells; read-out: Absolute IC50): 7 nM
- inhibition at 10 µM (NCI-H1155 cells; [1]): 87.3%
- GI50 (MDA-MB-453 cells; read-out: Absolute GI50): 4 nM
- IC50 (MDA-MB-453 cells; read-out: Absolute IC50): 4 nM
- inhibition at 10 µM (MDA-MB-453 cells; [1]): 67.5%
- GI50 (SK-OV-3 cells; read-out: Absolute GI50): 4 nM
- IC50 (SK-OV-3 cells; read-out: Absolute IC50): 4 nM
- inhibition at 10 µM (SK-OV-3 cells; [1]): 66.2%
- GI50 (HUH-7 cells; read-out: Absolute GI50): 7 nM
- IC50 (HUH-7 cells; read-out: Absolute IC50): 9 nM
- inhibition at 10 µM (HUH-7 cells; [1]): 60.8%
- GI50 (NCI-N87 cells; read-out: Absolute GI50): 4 nM
- IC50 (NCI-N87 cells; read-out: Absolute IC50): 4 nM
- inhibition at 10 µM (NCI-N87 cells; [1]): 49.6%
- GI50 (22Rv1 cells; read-out: Absolute GI50): 5 nM
- IC50 (22Rv1 cells; read-out: Absolute IC50): 6 nM
- inhibition at 10 µM (22Rv1 cells; [1]): 89%
- GI50 (SK-N-FI cells; read-out: Absolute GI50): 3 nM
- IC50 (SK-N-FI cells; read-out: Absolute IC50): 4 nM
- inhibition at 10 µM (SK-N-FI cells; [1]): 91.4%
- GI50 (Raji cells; read-out: Absolute GI50): 5 nM
- IC50 (Raji cells; read-out: Absolute IC50): 5 nM
- inhibition at 10 µM (Raji cells; [1]): 94.2%
- GI50 (HT-1376 cells; read-out: Absolute GI50): 6 nM
- IC50 (HT-1376 cells; read-out: Absolute IC50): 9 nM
- inhibition at 10 µM (HT-1376 cells; [1]): 53%
- GI50 (SW579 cells; read-out: Absolute GI50): 6 nM
- IC50 (SW579 cells; read-out: Absolute IC50): 7 nM
- inhibition at 10 µM (SW579 cells; [1]): 88.2%
- GI50 (SCC-4 cells; read-out: Absolute GI50): 5 nM
- IC50 (SCC-4 cells; read-out: Absolute IC50): 6 nM
- inhibition at 10 µM (SCC-4 cells; [1]): 86.1%
- GI50 (FaDu cells; read-out: Absolute GI50): 7 nM
- IC50 (FaDu cells; read-out: Absolute IC50): 8 nM
- inhibition at 10 µM (FaDu cells; [1]): 85.9%
- GI50 (MES-SA/DX5 cells; read-out: Absolute GI50): 7 nM
- IC50 (MES-SA/DX5 cells; read-out: Absolute IC50): 7 nM
- inhibition at 10 µM (MES-SA/DX5 cells; [1]): 97.8%
- GI50 (JHH-5 cells; read-out: Absolute GI50): 7 nM
- IC50 (JHH-5 cells; read-out: Absolute IC50): 7 nM
- inhibition at 10 µM (JHH-5 cells; [1]): 80.5%
